Laboratory results as given in patent publication US20250170120A1, “ALLOSTERIC STING MODULATORS AND METHODS OF USE” (THE BOARD OF REGENTS OF THE UNIVERSITY OF TEXAS SYSTEM, priority 2022, published 2025).

How the values were obtained:
[1] = biological target: human STING (Homo sapiens, UniProt Q86WV6); settings: cited from earlier work
[2] = biological target: T1, STING (Homo sapiens, UniProt Q86WV6, G230A/H232R/R293Q/R71H); experiment: STING pathway activity in THP1-Dual/THP-1 cells upon cGAMP or MSA-2 stimulation (luciferase/interferon readout); format: cell-based; settings: THP-1 cells; for inhibition at 10 µM: 10 μM compound, cGAMP (100 μM) or MSA-2 (10 μM) stimulation; for Induction of interferon production in the presence of MSA2: 10 μM MSA2; for Induction of interferon production in the presence of MSA2 / Interferon production in the presence of cGAMP: increasing concentrations of compound; for Interferon production in the presence of cGAMP: 100 μM cGAMP
T1 construct: host or cells: THP-1 / THP1-Dual / THP1-Lucia ISG cells
Excerpt: (§1) Methods of measuring STING activity and by extension, the activity of the compounds discussed herein, are known in the art. As an example, the STING pathway activity may be evaluated using reporter cell lines where a reporter gene (i.e., luciferase, GFP) is expressed under direct or indirect control of interferon response elements. For example, in an exemplary embodiment, the STING pathway can be measured using THP1-Dual™ cells (InvivoGen) which express the Lucia gene (a secreted luciferase reporter gene) under the control of an ISG54 minimal promoter in conjunction with five IFN-stimulated response elements. The STING pathway, when activated, stimulates interferon release which, in this model, will increase luciferase expression in a detectable manner. When inhibited, interferon release will be decreased, reducing luciferase expression in a detectable manner. The compounds can optionally be tested in the presence of external stimulation (i.e., using cGAMP, a natural agonist of STING, or MSA-2).
The STING pathway activity was evaluated in THP1-Dual™ cells (Invivogen). […] After incubating at 37° C. for 16 hours, the luciferase activity was measured by QUANTI-Luc™ (Invivogen).

[3] = biological target: T1, STING; experiment: cGAMP dose-response IFN induction in the presence of increasing compound concentrations; format: cell-based; settings: for cGAMP induced IFN induction in the presence of increasing concentrations of compound: FIGS. 16A-16D
Procedure: Compounds UT009, UT019, UT073 and UT122 were tested for their ability to interfere with cGAMP induced STING signaling. FIGS. 16A-16D show dose response plots of cGAMP induced IFN induction in the presence of increasing concentrations of each compound.
(§2) Compounds UT017, UT018, UT019 and UT0122 were tested for their ability to interfere with STING signaling. Interferon production in the presence of increasing concentrations of UT017, UT018, UT019 or UT0122 were measured in THP-1 cell lines under basal conditions. […] Compound UT0122 was further tested in THP1-Lucia™ ISG cells for interferon production at varying concentration, in the presence of an increasing dose of a STING agonist cGAMP.

[4] = biological target: T2, human STING (Homo sapiens, UniProt Q86WV6, H232R); experiment: Cryo-EM structure of human STING in complex with compound; format: binding
T2 construct: human STING residues 1-343, excluding the C-terminal tail; T6SS immunity protein 3 (Tsi3) from Pseudomonas aeruginosa (C, cleaved yes); human rhinovirus 3C protease cleavage site (C); made in house; host or cells: HEK293F cells (pEZT-BM vector)
Procedure: Cryo-EM data collection and image processing. Purified wild type human STING at 50 μM were incubated with cGAMP at 100 μM and C53 at 100 μM for formation of the protein/ligands complex. The complex was purified using a Superose 6 10/300 gel filtration column (GE healthcare) in buffer C. Peak fractions were collected and concentrated to 2.9 mg/ml. Additional cGAMP (100 μM) and C53 (100 μM) were added to ensure saturation of the protein by the ligands. The sample was applied to a glow-discharged Quantifoil R1.2/1.3 300-mesh gold holey carbon grid (Quantifoil, Micro Tools GmbH, Germany), blotted under 100% humidity at 4° C. and plunged into liquid ethane using a Mark IV Vitrobot (FEI).
Micrographs were collected on a Titan Krios microscope (FEI) with a K3 Summit direct electron detector (Gatan) in the super-resolution counting mode operated at 300 kV. The slit width of the GIF-Quantum energy filter was set to 20 eV. The nominal magnification was 81,000× and the pixel size of 1.08 Å. Micrographs were dose-fractioned into 36 frames with a total exposure time of 7.2 s at the dose rate of 1.6 e^−/Å^2/frame in the correlated double sampling (CDS) mode. Movie frames were motion-corrected and dose-weighted using the Motioncorr2 program (version 1.2). GCTF 1.06 was used for CTF correction. […] Local resolution was calculated in RELION (FIG. 6B). […]

[5] = biological target: T1, STING; experiment: Interferon production in THP-1 cells under basal conditions (no external stimulation); format: cell-based; settings: for Comparative antagonistic effect among UT017, UT018, UT019, UT0122 / Relative induction of interferon production under basal conditions: THP-1 cell lines, basal conditions; for Relative induction of interferon production under basal conditions: increasing concentrations
Excerpt: as §1, §2
The STING pathway activity was evaluated in THP1-Dual™ cells (Invivogen). 1.5×10^5 THP1-Dual™ cells were seeded in 96-well plates and treated with the test compound followed by cGAMP (100 uM) or MSA-2 (10 uM, Science 2020, 369, eaba6098) 2 hours later. After incubating at 37° C. for 16 hours, the luciferase activity was measured by QUANTI-Luc™ (Invivogen).

T1 sequence (Q86WV6 whole entry R71H/G230A/H232R/R293Q): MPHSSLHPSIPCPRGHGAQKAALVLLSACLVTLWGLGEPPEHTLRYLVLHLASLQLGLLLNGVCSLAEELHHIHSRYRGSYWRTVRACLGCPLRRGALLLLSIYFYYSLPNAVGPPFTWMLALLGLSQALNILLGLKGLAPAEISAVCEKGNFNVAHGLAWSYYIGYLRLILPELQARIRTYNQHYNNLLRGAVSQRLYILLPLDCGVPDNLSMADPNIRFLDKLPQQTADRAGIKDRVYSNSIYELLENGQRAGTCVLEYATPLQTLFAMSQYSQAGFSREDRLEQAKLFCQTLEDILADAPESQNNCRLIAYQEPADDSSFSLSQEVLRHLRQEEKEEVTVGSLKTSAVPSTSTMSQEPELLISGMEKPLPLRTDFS
Chain of human STING (Homo sapiens, UniProt Q86WV6) (Q86WV6 whole entry H232R): as the sequence (Q86WV6 whole entry R71H/G230A/H232R/R293Q) above, with H71R, A230G, Q293R counted along it
T2 sequence (Q86WV6 1-343 H232R): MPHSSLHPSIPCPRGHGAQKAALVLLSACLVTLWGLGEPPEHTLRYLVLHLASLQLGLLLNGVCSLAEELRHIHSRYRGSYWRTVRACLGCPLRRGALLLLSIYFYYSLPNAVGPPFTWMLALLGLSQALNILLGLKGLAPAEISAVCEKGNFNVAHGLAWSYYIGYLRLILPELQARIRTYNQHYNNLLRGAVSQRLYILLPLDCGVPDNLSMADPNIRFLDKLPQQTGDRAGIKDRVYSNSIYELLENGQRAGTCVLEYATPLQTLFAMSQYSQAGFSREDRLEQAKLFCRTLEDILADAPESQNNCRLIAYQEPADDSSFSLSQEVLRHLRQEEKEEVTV

Row | inhibition at 10 µM [2] | Binding site in human STING (cryo-EM) [4] | inhibition at 32 µM ([5]; 32 μM compound, no external stimulation, THP-1 cells) | Comparative antagonistic effect among UT017, UT018, UT019, UT0122 [5] | Induction of interferon by cGAMP ([3]; THP1-Lucia ISG cells, varying compound concentration, increasing dose of cGAMP) | Structure (SMILES) | Activation of human STING [1] | Induction of interferon production in the presence of MSA2 [2] | Interferon production in the presence of cGAMP [2] | cGAMP induced IFN induction in the presence of increasing concentrations of compound [3] | Relative induction of interferon production under basal conditions [5]
1 | – | – | – | – | – | Cc1ccc2c(=O)c3cccc(CC(=O)O)c3oc2c1C [DMXAA, 5,6-dimethylxanthenone-4-acetic acid] | does not activate human STING | – | – | – | –
2 | > 50% | bind at the same binding pocket as C53 | – | – | – | CC1(C)C(=O)N(Cc2c(F)cccc2C(F)(F)F)c2cc(C(=O)NCc3c(F)cc(F)cc3F)ccc21 [UT009, 1-(2-fluoro-6-(trifluoromethyl)benzyl)-3,3-dimethyl-2-oxo-N-(2,4,6-trifluorobenzyl)indoline-6-carboxamide] | – | inhibited the induction of interferon production in a dose dependent manner | reduction in interferon production with increasing concentration | dose-dependent suppression of interferon production | –
3 | – | – | > 50% | highest antagonistic effect | – | CC1(C)C(=O)N(Cc2c(F)cccc2Cl)c2cc(CNS(=O)(=O)c3c(F)cc(F)cc3F)ccc21 [UT019, N-((1-(2-chloro-6-fluorobenzyl)-3,3-dimethyl-2-oxoindolin-6-yl)methyl)-2,4,6-trifluorobenzenesulfonamide] | – | – | – | dose-dependent suppression of interferon production | suppressed at the highest concentration tested
4 | > 50% | – | – | highest antagonistic effect | suppressed in a dose-dependent manner | Cc1nn(C)c(CN2C(=O)C(C)(C)c3ccc(C(=O)NCc4cc5ccccc5[nH]4)cc32)c1Br [UT122, N-((1H-indol-2-yl)methyl)-1-((4-bromo-1,3-dimethyl-1H-pyrazol-5-yl)methyl)-3,3-dimethyl-2-oxoindoline-6-carboxamide] | – | antagonistic activity with an inhibition of interferon production in a dose dependent manner | antagonistic activity with an inhibition of interferon production in a dose dependent manner | dose-dependent suppression of interferon production | suppressed at the highest concentration tested
